From US20260215887A1, “COATING COMPOSITION FOR THE TREATMENT OR PREVENTION OF PERIIMPLANTITIS AND PREPARATION METHOD THEREOF” (UNIVERSITAT JAUME I, priority 2023, published 2026)

Key:
[1] = tested on: Staphylococcus aureus; conditions: known in the art; cited from earlier work
[2] = tested on: Streptococcus Gordonii (CECT 804); assay: Proliferation and bacterial count on inoculated grade-IV titanium disks; assay type: cell-based
Excerpt: The mechanism of action of the composition of Example 1 was further investigated by studying in parallel assays the proliferation of bacterial population of Streptococcus Gordonii on grade-IV titanium plates which are either uncoated or coated with M1 (free of octenidine) or M3 (2% in weight of octenidine) or with a solution of octenidine having an equivalent amount of octenidine as the composition M3. The following experimental procedure was used.
All materials used were sterile or have been previously sterilized by autoclaving. The assays were performed inside a level 2 biosafety cabinet. Three different grade IV-Ti disks were used to perform the assay. This procedure was carried out for each of the assays: First, a suspension of Streptococcus Gordonii (CECT 804) of known concentration was prepared. For this purpose, a test tube is prepared with 10 mL of d.d. H2O to which bacteria were added until the desired concentration (Concentration=1×10^6 CFU/mL). […] 500 μL of bacterial suspension of known concentration (1×10^6 CFU/mL) was then added in wells of a sterile 24-well plate. Subsequently, the grade-IV Ti disc was immersed in the bacterial suspension for 1 minute (1 disk per well) in order to inoculate the disc. […]
Once this time was elapsed, bacteria population was counted. […]

## CCCCCCCCN=c1ccn(CCCCCCCCCCn2ccc(=NCCCCCCCC)cc2)cc1 [octenidine]
[1]
  minimal bactericide concentration (MBC): < 2 mg/L
  minimal inhibitory concentration (MIC): < 2 mg/L
[2]; after 24 hours incubation at 37° C., FIG. 22
  proliferation of bacteria population on coated disks: significant reduction of bacteria proliferation
[2]; average of three samples per disk, 24 h at 37° C., uncoated disk 1,726 × 10^7
  bacterial count of bacteria adhered to the titanium surface: 483,33 CFU/mL
